In assay [1] the target is T1, Muscarinic acetylcholine receptor M1 (Homo sapiens, UniProt P11229).
T1 sequence (P11229 whole entry): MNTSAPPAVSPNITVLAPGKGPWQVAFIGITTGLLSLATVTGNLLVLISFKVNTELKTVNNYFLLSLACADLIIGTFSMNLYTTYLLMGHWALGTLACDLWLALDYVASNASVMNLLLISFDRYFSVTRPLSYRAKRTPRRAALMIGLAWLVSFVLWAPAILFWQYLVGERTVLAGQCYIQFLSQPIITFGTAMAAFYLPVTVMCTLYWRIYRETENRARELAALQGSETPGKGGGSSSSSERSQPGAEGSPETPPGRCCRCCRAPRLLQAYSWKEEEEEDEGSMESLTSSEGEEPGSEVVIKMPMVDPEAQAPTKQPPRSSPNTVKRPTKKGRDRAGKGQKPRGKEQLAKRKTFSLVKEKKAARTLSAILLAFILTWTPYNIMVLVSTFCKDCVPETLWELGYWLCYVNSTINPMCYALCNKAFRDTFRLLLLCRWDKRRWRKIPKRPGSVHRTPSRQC
As to the kind of experiment: (§1) Antagonist activity at human muscarinic M1 receptor expressed in CHO cells assessed as inhibition of acetylcholine-induced calcium mobilization by fluorescence analysis. It is filed as functional, cell-based. Background: A change in cytosolic calcium serves as a functional read-out for many receptors and channels.

Assay [2] has as its target T2, Muscarinic acetylcholine receptor M1 (Homo sapiens) (UniProt P11229).
T2 sequence (whole entry): T1 sequence (P11229 whole entry)
Description: Antagonist activity at human muscarinic M1 receptor expressed in CHO cells assessed as inhibition of acetylcholine-induced calcium mobilization at 30 uM measured after 15 mins by fluorescence analysis. It is filed as functional, cell-based. More on the design: scale not given: the % may be the effect or the level left.

The target in assay [3] is T2, Muscarinic acetylcholine receptor M1 (Homo sapiens). As to the kind of experiment: Antagonist activity at human muscarinic M1 receptor assessed as rightward shift in acetylcholine concentration response curve. The assay is classed as functional.
Assay [4] has the same target. Described as §1. The assay is classed as functional, cell-based.
For assay [5] the target is unchanged. As to the kind of experiment: Displacement of [3H]NMS from human muscarinic M1 receptor. A general note: Loss of bound radioactivity is the signal in a displacement assay; it reports binding, not function.

Structures are written as SMILES. Calls of active or inactive are those of the source. The calls are words filed in the database; no cut-off is given here.

On to `O=C(C1CN(S(=O)(=O)c2cccc3c2OCO3)C1)N1CC2CN(c3ccncc3)CC2C1` (stereo not drawn), for which the IC50 in assay [1] (read-out: IC50) was 1900 nM. The Activity in assay [2] came out at 13.5%.

On to `O=C(C1CN(S(=O)(=O)c2cccc3nonc23)C1)N1CC2CN(c3ccncc3)CC2C1` (stereo not drawn), for which the IC50 in assay [1] (read-out: IC50) amounted to 2000 nM. The Activity in assay [2] is 12.6%. For `O=C(C1CN(S(=O)(=O)c2cccnc2Cl)C1)N1CCN(c2ccncc2)CC1`, in assay [1] (read-out: IC50), the IC50 worked out at 1300 nM. Moreover, the Activity in assay [2] is 8.2%. For `Cc1cnccc1N1CCN(C(=O)C2CN(S(=O)(=O)c3cccc4cnccc34)C2)CC1` the same measures were 510 nM and 7.3%. On to `Cc1cc(S(=O)(=O)N2CC(C(=O)N3CCN(c4ccncc4)CC3)C2)cnc1Cl`, for which, in assay [2], the Activity was 4.9%.

Take `Cc1ccnc(S(=O)(=O)N2CC(C(=O)N3CCN(c4ccncc4)CC3)C2)c1`: the IC50 in assay [1] (read-out: IC50) is greater than 10000 nM. Besides, the Activity in assay [2] was found to be 41.3%. As to `O=C(C1CN(S(=O)(=O)c2cccc3c(Cl)nc(Cl)cc23)C1)N1CCN(c2ccncc2)CC1`, in assay [2], the Activity was found to be 12.7%. Consider `O=C(C1CN(S(=O)(=O)c2cccnc2)C1)N1CCN(c2ccncc2)CC1`, for which the IC50 in assay [1] (read-out: IC50) is 370 nM. Further, in assay [2], the Activity came out at 4.9%. On to `O=C(C1CN(S(=O)(=O)c2cccc3ncccc23)C1)N1CC2CN(c3ccncc3)CC2C1` (stereo not drawn), for which, in assay [1] (read-out: IC50), the IC50 is greater than 10000 nM. Moreover, in assay [2], the Activity was determined as 25.8%.

On to `Cn1cc(S(=O)(=O)N2CC(C(=O)N3CCN(c4ccncc4)CC3)C2)cn1`, for which, in assay [1] (read-out: IC50), the IC50 worked out at 1200 nM. Besides, the Activity in assay [2] was 12.3%. Take `O=C(C1CN(S(=O)(=O)c2ccc(Cl)cn2)C1)N1CCN(c2ccncc2)CC1`: the IC50 in assay [1] (read-out: IC50) is greater than 10000 nM. Besides, in assay [2], the Activity came out at 38.5%. On to `O=C(C1CN(S(=O)(=O)c2cccc3nsnc23)C1)N1CCN(c2ccncc2)CC1`, for which the results for the IC50 in assay [1] (read-out: IC50) and in assay [1] (read-out: pIC50 (converted)) were 2200 nM and 2090 nM, respectively. The Activity in assay [2] was found to be 10.1%.

As to `O=C(C1CN(S(=O)(=O)c2cccc(Cl)c2Cl)C1)N1CC2CN(c3ccncc3)CC2C1` (stereo not drawn), the Activity in assay [2] stood at 6.6%. As for `O=C(C1CN(S(=O)(=O)c2cccc3c(Cl)nccc23)C1)N1CCN(c2ccncc2)CC1`, the IC50 in assay [1] (read-out: IC50) was determined as 740 nM. In assay [2], the Activity was 3.5%. For `O=C(C1CCN(S(=O)(=O)c2cccc3nsnc23)C1)N1CCN(c2ccncc2)CC1` (racemic) the same measures were greater than 10000 nM and 47.1%.

Turning to `O=C(C1CN(S(=O)(=O)c2ccc3occc3c2)C1)N1CCN(c2ccncc2)CC1`, the IC50 in assay [1] (read-out: IC50) turned out to be 2300 nM. Also, in assay [2], the Activity stood at 10.5%. As for `O=C(C1CN(S(=O)(=O)c2ccc3c(c2)OCO3)C1)N1CCN(c2ccncc2)CC1`, the outcome in assay [3] and in assay [5] was Active. Further, the inhibition entry in assay [4] was “Dose-dependent effect”. Besides, the Activity in assay [2] stood at 5.3%. With `O=C(C1CCCN(S(=O)(=O)c2cccc3nsnc23)C1)N1CCN(c2ccncc2)CC1` (racemic), the IC50 in assay [1] (read-out: IC50) is greater than 10000 nM. Besides, the Activity in assay [2] was 33.4%. For `Cc1cc(N2CCN(C(=O)C3CN(S(=O)(=O)c4cccc5cnccc45)C3)CC2)cc(C)n1`, the IC50 in assay [1] (read-out: IC50) was found to be 690 nM. Also, in assay [2], the Activity was found to be 4.7%. Consider `O=C(C1CN(S(=O)(=O)c2cccc3ncccc23)C1)N1CCN(c2ccncc2)CC1`, for which the Activity in assay [2] is 8.8%. On to `O=C(C1CN(S(=O)(=O)c2cccc3nsnc23)C1)N1CC2CN(c3ccncc3)CC2C1` (stereo not drawn), for which the Activity in assay [2] was 16.2%.

On to `Cc1noc(C)c1S(=O)(=O)N1CC(C(=O)N2CCN(c3ccncc3)CC2)C1`, for which the IC50 in assay [1] (read-out: IC50) worked out at 2300 nM. Moreover, the Activity in assay [2] came to 15.3%. With `O=C(C1CN(S(=O)(=O)c2cccc3cnc(Cl)cc23)C1)N1CCN(c2ccncc2)CC1`, the IC50 in assay [1] (read-out: IC50) was 1600 nM. Besides, in assay [2], the Activity was 6%. In the case of `O=C(C1CN(S(=O)(=O)c2cccc(Cl)c2Cl)C1)N1CCN(c2ccncc2)CC1`, the IC50 in assay [1] (read-out: IC50) is 840 nM. The Activity in assay [2] was 3.5%. Turning to `O=C(C1CN(S(=O)(=O)c2ccccc2OC(F)(F)F)C1)N1CCN(c2ccncc2)CC1`, the IC50 in assay [1] (read-out: IC50) was 2500 nM. Moreover, in assay [2], the Activity turned out to be 8.4%. Turning to `O=C(C1CCN(S(=O)(=O)c2cccc3nsnc23)CC1)N1CCN(c2ccncc2)CC1`, the IC50 result in assay [1] (cho) is “Not Active”. As for `O=C(C1CN(S(=O)(=O)c2cccc(Cl)c2)C1)N1CCN(c2ccncc2)CC1`, the Activity in assay [2] is 20.7%. Consider `Cc1cc2c(S(=O)(=O)N3CC(C(=O)N4CCN(c5ccncc5)CC4)C3)cccc2cn1`, for which the Activity in assay [2] was 9.8%.

For `O=C(C1CN(S(=O)(=O)c2ccc3ncccc3c2)C1)N1CCN(c2ccncc2)CC1`, in assay [2], the Activity is 8%. For the molecule `O=C(C1CN(S(=O)(=O)c2cccc(F)c2)C1)N1CC2CN(c3ccncc3)CC2C1` (stereo not drawn), the IC50 in assay [1] (read-out: IC50) turned out to be 3200 nM. For the same molecule, the Activity in assay [2] stood at 18.9%. As for `Cc1nc(C(F)(F)F)c(S(=O)(=O)N2CC(C(=O)N3CCN(c4ccncc4)CC3)C2)s1`, in assay [1] (read-out: IC50), the IC50 came out at 2500 nM. The Activity in assay [2] is 12.7%. For `COc1ccc(S(=O)(=O)N2CC(C(=O)N3CCN(c4ccncc4)CC3)C2)cn1`, the IC50 in assay [1] (read-out: IC50) is greater than 10000 nM. Moreover, the Activity in assay [2] stood at 20.6%. Take `O=C(C1CN(S(=O)(=O)c2ccc3cn[nH]c3c2)C1)N1CCN(c2ccncc2)CC1`: the IC50 in assay [1] (read-out: IC50) is greater than 10000 nM. In addition, the Activity in assay [2] stood at 33%. For the molecule `O=C(C1CN(S(=O)(=O)c2ccc(Cl)nc2)C1)N1CCN(c2ccncc2)CC1`, the IC50 in assay [1] (read-out: IC50) was 500 nM. The Activity in assay [2] stood at 5.7%. As for `Cc1cc(N2CCN(C(=O)C3CN(S(=O)(=O)c4cccc5cnccc45)C3)CC2)ccn1`, the IC50 in assay [1] (read-out: IC50) came to 110 nM. The Activity in assay [2] stood at 3.1%. As for `O=C(C1CN(S(=O)(=O)c2cccnc2Cl)C1)N1CC2CN(c3ccncc3)CC2C1` (stereo not drawn), the IC50 in assay [1] (read-out: IC50) is 1500 nM. In addition, the Activity in assay [2] amounted to 9.9%. In the case of `O=C(C1CN(S(=O)(=O)c2cccc(Cl)c2F)C1)N1CCN(c2ccncc2)CC1`, in assay [2], the Activity was determined as 11.4%.

`Cc1cc2c(S(=O)(=O)N3CC(C(=O)N4CC5CN(c6ccncc6)CC5C4)C3)cccc2cn1` (stereo not drawn): the Activity in assay [2] is 14.8%. As to `O=C(C1CN(S(=O)(=O)c2cccc3nonc23)C1)N1CCN(c2ccncc2)CC1`, the IC50 in assay [1] (read-out: IC50) came out at 430 nM. Take `O=C(C1CN(S(=O)(=O)c2cccc3cnccc23)C1)N1CCN(c2ccncn2)CC1`: the Activity in assay [2] turned out to be 7.3%.

Regarding `O=C(C1CN(S(=O)(=O)c2cccc(F)c2)C1)N1CCN(c2ccncc2)CC1`, the IC50 in assay [1] (read-out: IC50) was found to be 1700 nM. In addition, in assay [2], the Activity was 9.5%. The like results for `O=C(C1CN(S(=O)(=O)c2ccc3c(c2)CCO3)C1)N1CCN(c2ccncc2)CC1` were, in that order, 130 nM and 3.6%.

Turning to `O=C(C1CN(S(=O)(=O)c2ccc(C(F)(F)F)nc2)C1)N1CCN(c2ccncc2)CC1`, in assay [1] (read-out: IC50), the IC50 is greater than 10000 nM. The Activity in assay [2] worked out at 40.7%. As to `O=C(C1CN(S(=O)(=O)c2cccc3cnccc23)C1)N1CCN(c2ccnc(Cl)c2)CC1`, in assay [1] (read-out: IC50), the IC50 is 180 nM. Moreover, in assay [2], the Activity was 3.6%.
